Key:
Swiss OF-1 mice = experiment: Spontaneous alternation in the Y-maze, dizocilpine-induced deficit; type: in vivo, mouse
CRL NMRI mice = experiment: Mouse 6-Hz model of refractory seizures; type: in vivo; conditions: 5.0 or 20.0 mg/kg i.p.
Protocol: The 6 Hz mouse model is a model system used to assess the efficacy of putative anti-seizure medications for refractory epilepsies generally, without regard to type.
The efficacy of FA in the mouse 6-Hz model was assessed by behavioral characterization after intraperitoneal injection of CRL NMRI mice (30-35 g) with VHC (50/50 DMSO/PEG200) or FA (5.0 or 20.0 mg/kg). Animals were placed in one of three treatment groups: vehicle (n=10), FA 5 mg/kg (n=6) and FA 20 mg/kg (n=6). Seizures were transcorneal-induced 1 h after injection (6-Hz, 0.2 ms pulse width, 44 mA).

CCNC(C)Cc1cccc(C(F)(F)F)c1 (racemic) [fenfluramine, (RS)—N-ethyl-1-[3-(trifluoromethyl)phenyl]propan-2-amine]
dizocilpine-induced deficit of spontaneous alternation (Swiss OF-1 mice; dizocilpine […], most active doses 0.3 and 1 mg/kg IP): significantly attenuated
interaction with PRE-084 (sigma-1 receptor behaviour in vivo) (Swiss OF-1 mice; fenfluramine at maximal inactive dose (0.1), Y-maze and passive avoidance data): behaves as a sigma-1 receptor PAM
period of post-seizure aggression (CRL NMRI mice): did not
seizures in the mouse 6-Hz model (CRL NMRI mice; 1 h before 6-Hz 44 mA stimulation, p<0.05 vs. VHC): significantly reduced seizures
